Measurements published in paper doi:10.1101/2024.12.04.24318244v2 (medrxiv, 2024).
pKi: −log10 of the molar value. Where a name gives a salt, the structure may show the parent alone. Read-outs that look alike come from different tables or passages of the source.

Columns and labels:
Assay in all cases: radioligand competition binding
5-HT1A = target: T1, 5-HT1A (Homo sapiens, UniProt P08908)
T1 sequence (P08908 1-422): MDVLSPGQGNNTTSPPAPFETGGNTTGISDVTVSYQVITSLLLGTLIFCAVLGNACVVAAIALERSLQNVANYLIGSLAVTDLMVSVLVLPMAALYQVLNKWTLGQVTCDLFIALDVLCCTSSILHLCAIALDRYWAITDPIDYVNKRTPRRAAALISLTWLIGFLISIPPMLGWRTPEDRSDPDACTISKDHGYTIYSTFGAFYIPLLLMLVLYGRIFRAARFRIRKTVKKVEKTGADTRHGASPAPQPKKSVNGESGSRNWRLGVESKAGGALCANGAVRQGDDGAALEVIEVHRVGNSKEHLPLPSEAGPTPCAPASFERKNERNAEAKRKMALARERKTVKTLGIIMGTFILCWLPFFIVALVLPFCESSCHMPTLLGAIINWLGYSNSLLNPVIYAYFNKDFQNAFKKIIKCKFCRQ

5-HT2B = 5-HT2B (Homo sapiens, UniProt P41595)
S2R = target: S2R

Sequence of 5-HT2B (P41595 whole entry): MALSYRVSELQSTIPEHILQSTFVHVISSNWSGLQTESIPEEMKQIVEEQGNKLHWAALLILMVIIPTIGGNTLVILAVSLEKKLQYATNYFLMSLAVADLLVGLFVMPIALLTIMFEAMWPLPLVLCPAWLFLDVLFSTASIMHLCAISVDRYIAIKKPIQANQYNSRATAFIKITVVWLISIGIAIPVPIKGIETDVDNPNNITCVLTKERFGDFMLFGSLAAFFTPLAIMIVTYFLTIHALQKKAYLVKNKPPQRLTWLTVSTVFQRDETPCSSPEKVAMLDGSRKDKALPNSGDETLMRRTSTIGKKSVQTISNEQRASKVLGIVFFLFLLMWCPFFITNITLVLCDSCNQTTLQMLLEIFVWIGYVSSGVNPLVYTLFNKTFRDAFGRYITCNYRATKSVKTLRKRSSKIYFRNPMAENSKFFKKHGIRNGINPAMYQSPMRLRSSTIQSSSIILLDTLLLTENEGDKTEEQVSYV

| SMILES | pKi (5-HT1A) | pKi (5-HT2B) | pKi (S2R; text b35 prints a range that differs from the table) | pKi (5-HT1A; text b38 prints a wider range than the table) | pKi (S2R) |
| --- | --- | --- | --- | --- | --- |
| CC(C)n1c(=O)c(C(=O)NCCCN2CCCCC2)c(O)c2ccsc21 [PRX-3140, 6,7-Dihydro-4-hydroxy-7-isopropyl-6-oxo-N-(3-(piperidin-1-yl)propyl)thieno[2,3-b]pyridine-5-carboxamide potassium salt] | < 5.30 | < 5.30 | 7.44 | – | – |
| CC(=O)Nc1cccc(N2CCN(CCCCNS(=O)(=O)CC3CCCCC3)CC2)c1 [NP-18-2, N-{3-[4-(4-cyclohexylmethanesulfonylaminobutyl)-piperazin-1-yl]phenyl} acetamide hydrochloride] | – | < 5.30 | – | 7.96 to 8.30 | < 5.70 |
| N#Cc1cc(CN2CCC(Nc3ncnc4sc(Cl)cc34)CC2)ccc1F [NP-18-3, 5-((4-(6-chlorothieno[2,3-d]pyrimidin-4-ylamino)piperidine-1-yl)methyl)-2-fluorobenzonitrile monofumarate] | – | 8.47 | – | – | 7.38 |
